# Data as given in PubChem BioAssay AID602427 (Sanford-Burnham Center for Chemical Genomics, 2012).
# Active and inactive are the calls of the source.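 The calls were made as follows: active = EC50 at or below 20 micromolar; inactive = the rest.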
# Molecular target: Neurotensin receptor type 1 (Homo sapiens) (UniProt P30989)
# Assay: NTR1 agonists, beta-arrestin recruitment, SAR follow-up, orthogonal assay for NTR1 agonist project, cell-based, luminescence, CHO-K1 NTSR1 PathHunter (AID 602427);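 also: agonist potency for NTR1 activation where higher luminescence means more arrestin recruitment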
# Sequence of Neurotensin receptor type 1 (Homo sapiens) (P30989 whole entry, looked up): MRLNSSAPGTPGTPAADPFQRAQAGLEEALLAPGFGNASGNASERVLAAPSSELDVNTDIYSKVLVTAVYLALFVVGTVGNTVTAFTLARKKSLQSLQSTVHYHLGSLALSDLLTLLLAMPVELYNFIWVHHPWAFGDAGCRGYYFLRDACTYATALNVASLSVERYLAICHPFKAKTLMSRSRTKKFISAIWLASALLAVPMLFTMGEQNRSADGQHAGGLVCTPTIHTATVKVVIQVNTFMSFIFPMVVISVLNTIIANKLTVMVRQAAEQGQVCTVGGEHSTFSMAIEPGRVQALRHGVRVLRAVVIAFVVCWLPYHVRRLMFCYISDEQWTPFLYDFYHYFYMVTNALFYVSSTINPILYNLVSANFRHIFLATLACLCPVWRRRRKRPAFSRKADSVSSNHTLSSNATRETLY
row,EC50,Compound
1,> 33 µM (inactive),CCCSc1nc2cc(OC)c(OC)cc2c(=N)n1Cc1ccccc1Cl
2,> 33 µM (inactive),COc1cc2nc(-c3ccccc3)nc(N3CCN(c4ccccc4)CC3)c2cc1OC
3,> 33 µM (inactive),COc1ccc2c3nnc(-c4ccc(C)cc4)c-3cn(Cc3ccccc3)c2c1
